Data on 72 compounds can be found in the Kinase Knowledgebase extract (Sharma et al. 2016).

Molecules are shown by their SMILES. Bounds are passed on as bounds.

This assay addresses PIK3CG (human) (UniProt P48736). Nature of the assay: Assessment of PIK3CG Kinase Activity.

Chain of PIK3CG (human) (P48736 whole entry, looked up): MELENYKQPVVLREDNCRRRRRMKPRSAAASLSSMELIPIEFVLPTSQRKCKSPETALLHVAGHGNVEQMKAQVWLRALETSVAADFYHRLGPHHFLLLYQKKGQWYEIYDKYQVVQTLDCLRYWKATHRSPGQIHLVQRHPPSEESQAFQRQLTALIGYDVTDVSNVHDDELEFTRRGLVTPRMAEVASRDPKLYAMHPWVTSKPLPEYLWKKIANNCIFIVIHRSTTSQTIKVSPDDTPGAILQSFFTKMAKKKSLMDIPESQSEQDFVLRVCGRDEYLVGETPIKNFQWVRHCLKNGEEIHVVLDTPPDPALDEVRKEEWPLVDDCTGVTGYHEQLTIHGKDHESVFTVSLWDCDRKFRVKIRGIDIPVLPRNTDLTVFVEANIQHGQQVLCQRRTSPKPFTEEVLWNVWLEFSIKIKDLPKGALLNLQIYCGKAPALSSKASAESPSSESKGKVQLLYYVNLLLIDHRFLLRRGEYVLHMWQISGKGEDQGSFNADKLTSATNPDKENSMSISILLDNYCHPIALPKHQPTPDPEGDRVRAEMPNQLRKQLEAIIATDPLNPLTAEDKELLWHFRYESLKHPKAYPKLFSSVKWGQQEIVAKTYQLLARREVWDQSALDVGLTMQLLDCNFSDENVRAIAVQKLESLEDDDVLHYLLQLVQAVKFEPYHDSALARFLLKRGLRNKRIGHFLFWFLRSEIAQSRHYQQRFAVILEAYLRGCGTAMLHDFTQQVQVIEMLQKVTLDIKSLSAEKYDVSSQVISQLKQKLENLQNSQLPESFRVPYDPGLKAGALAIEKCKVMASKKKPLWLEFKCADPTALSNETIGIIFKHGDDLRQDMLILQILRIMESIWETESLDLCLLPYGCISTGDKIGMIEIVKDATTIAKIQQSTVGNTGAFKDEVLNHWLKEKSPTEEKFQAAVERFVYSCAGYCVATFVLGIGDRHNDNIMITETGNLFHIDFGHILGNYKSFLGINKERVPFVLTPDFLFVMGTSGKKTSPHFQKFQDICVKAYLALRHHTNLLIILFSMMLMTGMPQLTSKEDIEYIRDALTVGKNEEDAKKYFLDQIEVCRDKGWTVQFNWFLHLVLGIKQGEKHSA

The compound `CCc1nnc(CCNC(=O)Nc2nc3c(s2)-c2c(c(-c4ccccc4)nn2-c2cccc(Cl)c2)CC3)o1` registered an IC50 of less than 800 nM.
In turn, `O=C(NC[C@H]1CCCN1C(=O)N1CCCC1)Nc1nc2c(s1)-c1c(c(-c3cncnc3)nn1-c1ccccc1Cl)CC2` showed a half-maximal inhibitory concentration (IC50) of less than 800 nM.
For `NC(=O)Nc1nc2c(s1)-c1c(c(-c3cccnc3)nn1-c1ccc(S(N)(=O)=O)cc1Cl)CC2` the value was less than 800 nM.
For `O=C(NCCN1CCNC1=O)Nc1nc2c(s1)-c1c(c(-c3cccnc3)nn1-c1ccccc1Cl)CC2` the value was less than 800 nM; for `NCCNC(=O)Nc1nc2c(s1)-c1c(c(-c3ccccc3)nn1-c1ccccc1Cl)CC2`, less than 800 nM.
The compound `C[C@@H](NC(=O)Nc1nc2c(s1)-c1c(c(-c3ccccc3)nn1-c1ccccc1Cl)CC2)C(=O)N(C)C` returned a concentration for half-maximal inhibition (IC50) of less than 800 nM.
For `COc1ccc(S(=O)(=O)NCCNC(=O)Nc2nc3c(s2)-c2c(c(-c4ccccc4)nn2-c2ccccc2Cl)CC3)cc1` the value was less than 800 nM; for `O=C(NCc1cccc(OC(F)(F)F)c1)Nc1nc2c(s1)-c1c(c(-c3cncnc3)nn1-c1ccccc1Cl)CC2`, less than 800 nM.
For `CC(C)(C)OC(=O)CNC(=O)Nc1nc2c(s1)-c1c(c(-c3cccnc3)nn1C1CCN(C3CCCC3)CC1)CC2` the value was less than 800 nM; for `CC(C)(C)OC(=O)CCNC(=O)Nc1nc2c(s1)-c1c(c(-c3cccnc3)nn1-c1ccccc1Cl)CC2`, less than 800 nM; for `CCc1cnc(CCNC(=O)Nc2nc3c(s2)-c2c(c(-c4cccnc4)nn2C2CCN(C4CCCC4)CC2)CC3)o1`, less than 800 nM.
Turning to `CN1CCC(n2nc(-c3cccnc3)c3c2-c2sc(NC(=O)NCc4cccc(NC(N)=O)c4)nc2CC3)CC1`, the IC50 is less than 800 nM.
For `CCc1csc(CCNC(=O)Nc2nc3c(s2)-c2c(c(C4CC4)nn2-c2ccccc2Cl)CC3)n1` the value was less than 800 nM.
`CS(=O)(=O)Nc1cccc(NC(=O)Nc2nc3c(s2)-c2c(c(-c4ccccc4)nn2-c2ccccc2Cl)CC3)c1`: the half-inhibitory concentration (IC50) was less than 800 nM.
For `O=C(Nc1nc2c(s1)-c1c(c(-c3cncnc3)nn1-c1ccccc1Cl)CC2)NC1CCCNC1` (configuration not stated), the IC50 was less than 800 nM.
For `CC(=O)Nc1cccc(CNC(=O)Nc2nc3c(s2)-c2c(c(C4CC4)nn2-c2ccccc2Cl)CC3)c1` the value was less than 800 nM; for `CCN(CC)C(=O)N1CC[C@H](CNC(=O)Nc2nc3c(s2)-c2c(c(-c4cncnc4)nn2-c2ccccc2Cl)CC3)C1`, less than 800 nM; for `CCc1csc(CCNC(=O)Nc2nc3c(s2)-c2c(c(-c4cncnc4)nn2-c2ccccc2Cl)CC3)n1`, less than 800 nM.
In turn, `CN(C)C(=O)CNC(=O)Nc1nc2c(s1)-c1c(c(C3CC3)nn1-c1ccccc1Cl)CC2` displayed a concentration for half-maximal inhibition (IC50) of less than 800 nM.
For `CNC(=O)[C@H](C)NC(=O)Nc1nc2c(s1)-c1c(c(-c3ccccc3)nn1-c1ccccc1Cl)CC2` the value was less than 800 nM.
The compound `CC(C)(C)OC(=O)NCc1cccc(CNC(=O)Nc2nc3c(s2)-c2c(c(-c4cccnc4)nn2-c2ccccc2Cl)CC3)c1` yielded a half-inhibitory concentration (IC50) of less than 800 nM.
Regarding `NS(=O)(=O)c1ccc(-n2nc(-c3cccnc3)c3c2-c2sc(NC(=O)NCc4cccc(N5CCNC5=O)c4)nc2CC3)c(Cl)c1`, the IC50 was less than 800 nM.
Take `CCn1cnc(CCNC(=O)Nc2nc3c(s2)-c2c(c(-c4cccnc4)nn2-c2ccccc2Cl)CC3)c1`: the IC50 is less than 800 nM.
For `CCc1cccc(CNC(=O)Nc2nc3c(s2)-c2c(c(C4CC4)nn2-c2ccccc2Cl)CC3)c1` the value was less than 800 nM.
For `Cn1cccc1CCNC(=O)Nc1nc2c(s1)-c1c(c(-c3cccnc3)nn1-c1ccccc1Cl)CC2` the value was less than 800 nM.
For `CN1CCC(O)C2(CCCN(C(=O)Nc3nc4c(s3)-c3c(c(-c5cccnc5)nn3-c3ccccc3Cl)CC4)C2)C1` (configuration not stated) the value was less than 800 nM; for `CCn1cnc(CCNC(=O)Nc2nc3c(s2)-c2c(c(-c4ccccc4)nn2-c2ccccc2Cl)CC3)c1`, less than 800 nM.
Turning to `CC(C)(C)OC(=O)N1CC[C@H](CNC(=O)Nc2nc3c(s2)-c2c(c(-c4cncnc4)nn2-c2ccccc2Cl)CC3)C1`, the IC50 is less than 800 nM.
For `CN(C)C(=O)CNC(=O)Nc1nc2c(s1)-c1c(c(-c3cccnc3)nn1-c1ccccc1Cl)CC2` the value was less than 800 nM; for `CC(C)c1cnc(CCNC(=O)Nc2nc3c(s2)-c2c(c(-c4ccccc4)nn2-c2cccc(Cl)c2)CC3)o1`, less than 800 nM; for `CC(C)OC(=O)N1CCC[C@@H]1CNC(=O)Nc1nc2c(s1)-c1c(c(-c3cncnc3)nn1-c1ccccc1Cl)CC2`, less than 800 nM.
For `COC(=O)N1CC[C@H](CNC(=O)Nc2nc3c(s2)-c2c(c(-c4cncnc4)nn2-c2ccccc2Cl)CC3)C1` the value was less than 800 nM.
For `O=C(NCc1ccccc1N1CCCCC1)Nc1nc2c(s1)-c1c(c(-c3cccnc3)nn1-c1ccccc1Cl)CC2` the value was less than 800 nM.
As for `CC(C)(C)OC(=O)N1CCN(c2cccc(NC(=O)Nc3nc4c(s3)-c3c(c(-c5cncnc5)nn3-c3ccccc3F)CC4)c2)CC1`, the IC50 is less than 800 nM.
As to `O=C(NCc1ccc(N2CCNC2=O)cc1)Nc1nc2c(s1)-c1c(c(-c3ccccc3)nn1-c1cccc(Cl)c1)CC2`, the half-inhibitory concentration (IC50) was less than 800 nM.
For `CCc1noc(CCNC(=O)Nc2nc3c(s2)-c2c(c(-c4cccnc4)nn2C2CCN(C)CC2)CC3)n1` the value was less than 800 nM; for `CC(C)(C)OC(=O)N1CCCC(NC(=O)Nc2nc3c(s2)-c2c(c(-c4cncnc4)nn2-c2ccccc2Cl)CC3)C1` (configuration not stated), less than 800 nM.
Consider `CN1CCC(n2nc(-c3cccnc3)c3c2-c2sc(NC(=O)NCc4cccc(C(N)=O)c4)nc2CC3)CC1`, for which the IC50 was less than 800 nM.
For `N[C@@H]1CC[C@@H](NC(=O)Nc2nc3c(s2)-c2c(c(-c4ccccc4)nn2-c2ccccc2Cl)CC3)C1` the value was less than 800 nM; for `CNC(=O)Nc1nc2c(s1)-c1c(c(-c3cccnc3)nn1-c1ccc(S(N)(=O)=O)cc1Cl)CC2`, less than 800 nM.
In turn, `O=C(Nc1nc2c(s1)-c1c(cnn1-c1ccccc1)CC2)N1CCCCC1` gave a concentration for half-maximal inhibition (IC50) of less than 800 nM.
For `O=C(NCC1CCCCN1)Nc1nc2c(s1)-c1c(c(-c3cncnc3)nn1-c1ccccc1Cl)CC2` (configuration not stated) the value was less than 800 nM; for `O=C(NCc1cccc(N2CCNC2=O)c1)Nc1nc2c(s1)-c1c(c(-c3cccnc3)nn1C1CCN(C3CCCC3)CC1)CC2`, less than 800 nM.
As for `CCN1CCC[C@@H]1CNC(=O)Nc1nc2c(s1)-c1c(c(-c3cccnc3)nn1-c1ccccc1Cl)CC2`, the half-inhibitory concentration (IC50) is less than 800 nM.
For `O=C1Cc2ccccc2CN1CC1CCN(C(=O)Nc2nc3c(s2)-c2c(c(-c4cccnc4)nn2-c2ccccc2Cl)CC3)C1` (configuration not stated) the value was less than 800 nM; for `CN[C@@H](C)C(=O)N1CCC[C@@H]1CNC(=O)Nc1nc2c(s1)-c1c(c(-c3cncnc3)nn1-c1ccccc1Cl)CC2`, less than 800 nM; for `CC(C)(CNc1ccc(C(C)(C)C)cc1)NC(=O)Nc1nc2c(s1)-c1c(c(-c3cccnc3)nn1-c1ccccc1Cl)CC2`, less than 800 nM.
For `CN1CCN(Cc2cccc(NC(=O)Nc3nc4c(s3)-c3c(c(-c5cncnc5)nn3-c3ccccc3F)CC4)c2)CC1` the value was less than 800 nM; for `O=C(NCc1ccc2c(c1)OCO2)Nc1nc2c(s1)-c1c(c(-c3cncnc3)nn1-c1ccccc1Cl)CC2`, less than 800 nM; for `CC(C)(C)OC(=O)N1CCCC(CNC(=O)Nc2nc3c(s2)-c2c(c(-c4cncnc4)nn2-c2ccccc2Cl)CC3)C1` (configuration not stated), less than 800 nM.
For the compound `CC(C)(C)OC(=O)CCNC(=O)Nc1nc2c(s1)-c1c(c(C3CC3)nn1-c1ccccc1Cl)CC2`, the IC50 is less than 800 nM.
For `Cn1cc(CNC(=O)Nc2nc3c(s2)-c2c(c(-c4cccnc4)nn2C2CCN(C4CCCC4)CC2)CC3)cn1` the value was less than 800 nM; for `O=C(NCC1CCCN(c2ncccn2)C1)Nc1nc2c(s1)-c1c(c(-c3cccnc3)nn1-c1ccccc1Cl)CC2` (configuration not stated), less than 800 nM; for `NC(=O)Nc1nc2c(s1)-c1c(c(-c3cncnc3)nn1-c1ccccc1Cl)CC2`, less than 800 nM.
As for `CC(C)(C)OC(=O)N1CCC[C@@H]1CNC(=O)Nc1nc2c(s1)-c1c(c(-c3ccccc3)nn1-c1ccccc1Cl)CC2`, the concentration for half-maximal inhibition (IC50) is less than 800 nM.
Compound `CC(=O)Nc1cccc(CNC(=O)Nc2nc3c(s2)-c2c(c(-c4cccnc4)nn2C2CCN(C)CC2)CC3)c1` returned an IC50 of less than 800 nM.
Turning to `O=C(NCCc1nc(C2CC2)no1)Nc1nc2c(s1)-c1c(c(-c3cncnc3)nn1-c1ccccc1Cl)CC2`, the IC50 was less than 800 nM.
For `CC(C)(C)OC(=O)N1CCC[C@@H]1CNC(=O)Nc1nc2c(s1)-c1c(c(-c3cncnc3)nn1-c1ccccc1Cl)CC2` the value was less than 800 nM; for `CC(C)(C)OC(=O)N1CCC(C(=O)N2CCC[C@@H]2CNC(=O)Nc2nc3c(s2)-c2c(c(-c4cncnc4)nn2-c2ccccc2Cl)CC3)C1` (some centres not stated), less than 800 nM; for `O=C(NC[C@H]1CCNC1)Nc1nc2c(s1)-c1c(c(-c3cncnc3)nn1-c1ccccc1Cl)CC2`, less than 800 nM.
For `CN1CCC(n2nc(-c3cccnc3)c3c2-c2sc(NC(=O)NCc4cccc(N(C)C)c4)nc2CC3)CC1` the value was less than 800 nM.
Consider `CCc1noc(CCNC(=O)Nc2nc3c(s2)-c2c(c(-c4cccnc4)nn2-c2ccccc2Cl)CC3)n1`, for which the IC50 is less than 800 nM.
In turn, `CNC(=O)c1cccc(CNC(=O)Nc2nc3c(s2)-c2c(c(-c4cccnc4)nn2-c2ccccc2Cl)CC3)c1` returned a half-maximal inhibitory concentration (IC50) of less than 800 nM.
On to `O=C(Nc1nc2c(s1)-c1c(c(-c3cccnc3)nn1-c1ccccc1Cl)CC2)NC1CCC(N2CCNC2=O)CC1` (configuration not stated), for which the IC50 is less than 800 nM.
`CNC(=O)[C@@H](C)NC(=O)Nc1nc2c(s1)-c1c(c(-c3ccccc3)nn1-c1ccccc1Cl)CC2` showed an IC50 of less than 800 nM.
`CC(=O)Nc1ccc(S(=O)(=O)NCCNC(=O)Nc2nc3c(s2)-c2c(c(-c4ccccc4)nn2-c2ccccc2Cl)CC3)cc1` gave an IC50 of less than 800 nM.
In the case of `O=C(NCCNS(=O)(=O)C1CC1)Nc1nc2c(s1)-c1c(c(-c3ccccc3)nn1-c1ccccc1Cl)CC2`, the half-inhibitory concentration (IC50) was less than 800 nM.
For `CC(C)(C)OC(=O)N1CCC[C@H]1CNC(=O)Nc1nc2c(s1)-c1c(c(-c3cncnc3)nn1-c1ccccc1F)CC2` the value was less than 800 nM.
Compound `CN1CCN(C(=O)Nc2nc3c(s2)-c2c(cnn2-c2ccccc2)CC3)CC1` displayed a concentration for half-maximal inhibition (IC50) of less than 800 nM.
Turning to `CNC(=O)c1cccc(CNC(=O)Nc2nc3c(s2)-c2c(c(-c4cccnc4)nn2C2CCN(C)CC2)CC3)c1`, the half-inhibitory concentration (IC50) was less than 800 nM.
For `CC(C)c1cccc(CNC(=O)Nc2nc3c(s2)-c2c(c(-c4cccnc4)nn2-c2ccccc2Cl)CC3)c1` the value was less than 800 nM; for `CCNC(=O)Nc1nc2c(s1)-c1c(c(-c3cccnc3)nn1-c1ccc(S(N)(=O)=O)cc1Cl)CC2`, less than 800 nM.

By IC50 is commonly meant the concentration that inhibits the measured activity by half. A lower IC50 goes with greater potency in that assay.
